Measurements as given in ChEMBL document CHEMBL4364276, “Discovery of 4-phenyl-2H-benzo[b][1,4]oxazin-3(4H)-one derivatives as potent and orally active PI3K/mTOR dual inhibitors” (Eur J Med Chem, 2019).

Experiments:
[1] = biological target: Dual serine/threonine and tyrosine protein kinase (Homo sapiens) (UniProt Q6XUX3); experiment: Inhibition of human RIPK5 at 100 nM using MBP as substrate by [gamma-33P]-ATP assay
[2] = biological target: Mitogen-activated protein kinase 1 (Homo sapiens) (UniProt P28482); experiment: Inhibition of human ERK2 at 100 nM using MBP as substrate by [gamma-33P]-ATP assay
Sequence of Mitogen-activated protein kinase 1 (Homo sapiens) (P28482 whole entry): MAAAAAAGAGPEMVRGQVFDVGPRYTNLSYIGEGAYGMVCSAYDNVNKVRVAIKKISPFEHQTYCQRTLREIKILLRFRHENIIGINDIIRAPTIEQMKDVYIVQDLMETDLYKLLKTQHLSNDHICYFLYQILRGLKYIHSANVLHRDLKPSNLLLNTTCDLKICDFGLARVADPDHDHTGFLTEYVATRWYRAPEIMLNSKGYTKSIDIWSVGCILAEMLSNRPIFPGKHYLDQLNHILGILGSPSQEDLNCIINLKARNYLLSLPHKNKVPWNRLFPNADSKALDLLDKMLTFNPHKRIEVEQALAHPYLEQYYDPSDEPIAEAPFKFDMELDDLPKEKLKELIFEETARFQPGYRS

[3] = biological target: Ephrin type-A receptor 7 (Homo sapiens) (UniProt Q15375); experiment: Inhibition of human EPHA7 at 100 nM using poly[Glu:Tyr] (4:1) as substrate by [gamma-33P]-ATP assay
[4] = biological target: Phosphatidylinositol 4,5-bisphosphate 3-kinase catalytic subunit gamma isoform (Homo sapiens, UniProt P48736); experiment: Inhibition of recombinant human full length N-terminal DYKDDDDK-tagged PI3Kgamma (1 to 1102 residues) expressed in baculovirus expression system using PIP2 as substrate incubated for 2 hrs by ADP-Glo assay
[5] = biological target: Death-associated protein kinase 2 (Homo sapiens) (UniProt Q9UIK4); experiment: Inhibition of human DAPK2 at 100 nM using KKLNRTLSFAEPG as substrate by [gamma-33P]-ATP assay
[6] = biological target: Aurora kinase B (Homo sapiens) (UniProt Q96GD4); experiment: Inhibition of human Aurora B at 100 nM using [H-LRRASLG] as substrate by [gamma-33P]-ATP assay
[7] = biological target: eIF-2-alpha kinase GCN2 (Homo sapiens) (UniProt Q9P2K8); experiment: Inhibition of human EIF2AK4 at 100 nM using MBP as substrate by [gamma-33P]-ATP assay
[8] = biological target: Tyrosine-protein kinase JAK1 (Homo sapiens) (UniProt P23458); experiment: Inhibition of human JAK1 at 100 nM using poly[Glu:Tyr] (4:1) as substrate by [gamma-33P]-ATP assay
Homo sapiens = species: Homo sapiens; experiment: Inhibition of human AMPK (A2/B2/G2) at 100 nM using HMRSAMSGLHLVKRR as substrate by [gamma-33P]-ATP assay
[9] = biological target: Proto-oncogene tyrosine-protein kinase ROS (Homo sapiens) (UniProt P08922); experiment: Inhibition of human ROS at 100 nM using KKKSPGEYVNIEFG as substrate by [gamma-33P]-ATP assay
[10] = biological target: Dual specificity tyrosine-phosphorylation-regulated kinase 3 (Homo sapiens) (UniProt O43781); experiment: Inhibition of human DYRK3 at 100 nM using RRRFRPASPLRGPPK as substrate by [gamma-33P]-ATP assay
[11] = biological target: Mitogen-activated protein kinase kinase kinase 20 (Homo sapiens) (UniProt Q9NYL2); experiment: Inhibition of human ZAK at 100 nM using MBP as substrate by [gamma-33P]-ATP assay
[12] = biological target: Myosin light chain kinase 2, skeletal/cardiac muscle (Homo sapiens) (UniProt Q9H1R3); experiment: Inhibition of human MLCK2 at 100 nM using KKLNRTLSFAEPG as substrate by [gamma-33P]-ATP assay
[13] = biological target: Dual specificity protein kinase CLK2 (Homo sapiens) (UniProt P49760); experiment: Inhibition of human CLK2 at 100 nM using MBP as substrate by [gamma-33P]-ATP assay
[14] = biological target: Eukaryotic translation initiation factor 2-alpha kinase 3 (Homo sapiens) (UniProt Q9NZJ5); experiment: Inhibition of human EIF2AK3 at 100 nM using MBP as substrate by [gamma-33P]-ATP assay
[15] = biological target: LIM domain kinase 1 (Homo sapiens) (UniProt P53667); experiment: Inhibition of human LIMK1 at 100 nM using cofilin as substrate by [gamma-33P]-ATP assay
Sequence of LIM domain kinase 1 (Homo sapiens) (P53667 whole entry, looked up, the tested form may be a part): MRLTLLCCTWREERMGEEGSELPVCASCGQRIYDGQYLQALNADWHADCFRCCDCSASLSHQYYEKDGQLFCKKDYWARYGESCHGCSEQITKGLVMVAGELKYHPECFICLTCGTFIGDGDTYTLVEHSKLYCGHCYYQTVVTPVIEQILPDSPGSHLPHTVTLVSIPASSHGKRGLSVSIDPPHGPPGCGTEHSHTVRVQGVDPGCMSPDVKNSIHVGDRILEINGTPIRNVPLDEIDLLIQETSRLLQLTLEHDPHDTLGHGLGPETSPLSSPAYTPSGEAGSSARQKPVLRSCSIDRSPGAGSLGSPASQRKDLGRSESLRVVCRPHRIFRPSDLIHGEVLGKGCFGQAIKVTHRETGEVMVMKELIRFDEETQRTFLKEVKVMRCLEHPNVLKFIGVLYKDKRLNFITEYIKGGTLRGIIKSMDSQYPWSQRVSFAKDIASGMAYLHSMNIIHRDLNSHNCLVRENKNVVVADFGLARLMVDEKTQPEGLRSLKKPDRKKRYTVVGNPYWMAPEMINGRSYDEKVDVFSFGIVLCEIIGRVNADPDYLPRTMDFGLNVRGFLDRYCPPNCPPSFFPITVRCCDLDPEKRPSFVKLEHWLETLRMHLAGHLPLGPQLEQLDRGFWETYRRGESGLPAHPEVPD

[16] = Cmax in Sprague-Dawley rat at 10 mg/kg, po measured upto 24 hrs by LC-MS/MS analysis; format: ADME, organism-based; design: dose 10 mg/kg, route oral; conditions: in vivo
MCF7 = experiment: cells; conditions: Homo sapiens, MCF7, 72 h
[17] = biological target: Serine/threonine-protein kinase 24 (Homo sapiens) (UniProt Q9Y6E0); experiment: Inhibition of human MST3 at 100 nM using MBP as substrate by [gamma-33P]-ATP assay
[18] = biological target: Platelet-derived growth factor receptor alpha (Homo sapiens) (UniProt P16234); experiment: Inhibition of human PDGFRalpha at 100 nM using poly[Glu:Tyr] (4:1) as substrate by [gamma-33P]-ATP assay
[19] = biological target: SRSF protein kinase 3 (Homo sapiens) (UniProt Q9UPE1); experiment: Inhibition of human MSSK1 at 100 nM using GRSRSRSRSR as substrate by [gamma-33P]-ATP assay
[20] = biological target: Protein kinase C delta type (Homo sapiens) (UniProt Q05655); experiment: Inhibition of human PKCdelta at 100 nM using ERMRPRKRQGSVRRRV as substrate by [gamma-33P]-ATP assay
[21] = biological target: Serine/threonine-protein kinase tousled-like 1 (Homo sapiens) (UniProt Q9UKI8); experiment: Inhibition of human TLK1 at 100 nM using Histone H3 as substrate by [gamma-33P]-ATP assay
[22] = biological target: Serine/threonine-protein kinase Nek11 (Homo sapiens) (UniProt Q8NG66); experiment: Inhibition of human NEK11 at 100 nM using MBP as substrate by [gamma-33P]-ATP assay
Sequence of Serine/threonine-protein kinase Nek11 (Homo sapiens) (Q8NG66 whole entry): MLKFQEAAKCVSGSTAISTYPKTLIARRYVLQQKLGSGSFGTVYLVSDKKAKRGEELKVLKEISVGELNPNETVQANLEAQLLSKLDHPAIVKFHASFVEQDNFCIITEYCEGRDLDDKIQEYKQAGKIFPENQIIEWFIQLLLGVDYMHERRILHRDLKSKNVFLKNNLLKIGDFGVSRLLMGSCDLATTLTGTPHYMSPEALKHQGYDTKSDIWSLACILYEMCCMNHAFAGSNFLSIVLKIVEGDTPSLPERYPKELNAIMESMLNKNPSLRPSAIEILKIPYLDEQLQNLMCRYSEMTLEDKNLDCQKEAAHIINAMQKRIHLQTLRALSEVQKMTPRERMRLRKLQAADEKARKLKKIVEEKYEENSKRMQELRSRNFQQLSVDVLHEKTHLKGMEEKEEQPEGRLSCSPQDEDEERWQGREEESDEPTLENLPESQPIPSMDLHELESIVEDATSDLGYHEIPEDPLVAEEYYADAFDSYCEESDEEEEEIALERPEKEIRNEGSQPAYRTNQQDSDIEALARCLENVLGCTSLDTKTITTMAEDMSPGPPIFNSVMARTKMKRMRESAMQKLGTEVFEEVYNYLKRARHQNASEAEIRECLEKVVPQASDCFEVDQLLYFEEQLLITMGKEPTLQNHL

[23] = biological target: Kinase suppressor of Ras 2 (Homo sapiens) (UniProt Q6VAB6); experiment: Inhibition of human KSR2 at 100 nM using KRREILSRRPSYR as substrate by [gamma-33P]-ATP assay
Sequence of Kinase suppressor of Ras 2 (Homo sapiens) (Q6VAB6 whole entry): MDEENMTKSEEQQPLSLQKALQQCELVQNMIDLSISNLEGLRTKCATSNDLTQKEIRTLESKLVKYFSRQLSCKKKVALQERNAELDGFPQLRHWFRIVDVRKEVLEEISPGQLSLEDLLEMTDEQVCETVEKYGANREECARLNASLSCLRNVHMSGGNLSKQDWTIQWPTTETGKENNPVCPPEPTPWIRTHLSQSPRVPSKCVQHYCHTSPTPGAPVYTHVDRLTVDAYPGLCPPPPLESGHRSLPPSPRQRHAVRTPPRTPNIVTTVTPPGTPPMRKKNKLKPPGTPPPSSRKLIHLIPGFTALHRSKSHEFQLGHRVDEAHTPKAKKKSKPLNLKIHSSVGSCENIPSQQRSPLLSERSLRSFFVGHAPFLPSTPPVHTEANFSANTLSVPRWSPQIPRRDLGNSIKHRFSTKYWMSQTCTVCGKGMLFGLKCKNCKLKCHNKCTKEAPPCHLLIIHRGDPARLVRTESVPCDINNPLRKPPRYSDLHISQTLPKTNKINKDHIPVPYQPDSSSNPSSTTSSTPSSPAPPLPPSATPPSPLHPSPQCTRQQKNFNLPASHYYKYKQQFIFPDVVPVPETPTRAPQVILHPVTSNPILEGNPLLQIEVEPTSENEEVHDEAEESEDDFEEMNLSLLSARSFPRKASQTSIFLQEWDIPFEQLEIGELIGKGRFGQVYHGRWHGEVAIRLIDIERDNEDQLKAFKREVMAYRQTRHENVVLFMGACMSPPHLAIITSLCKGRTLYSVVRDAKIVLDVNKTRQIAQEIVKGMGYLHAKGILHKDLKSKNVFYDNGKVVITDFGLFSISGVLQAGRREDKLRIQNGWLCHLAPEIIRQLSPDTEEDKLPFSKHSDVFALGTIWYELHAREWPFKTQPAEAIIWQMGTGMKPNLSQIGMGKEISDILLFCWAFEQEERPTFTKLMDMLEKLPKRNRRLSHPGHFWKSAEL

[24] = biological target: Serine/threonine-protein kinase/endoribonuclease IRE1 (Homo sapiens) (UniProt O75460); experiment: Inhibition of human ERN1 at 100 nM using MBP as substrate by [gamma-33P]-ATP assay
Sequence of Serine/threonine-protein kinase/endoribonuclease IRE1 (Homo sapiens) (O75460 19-977 limits assumed): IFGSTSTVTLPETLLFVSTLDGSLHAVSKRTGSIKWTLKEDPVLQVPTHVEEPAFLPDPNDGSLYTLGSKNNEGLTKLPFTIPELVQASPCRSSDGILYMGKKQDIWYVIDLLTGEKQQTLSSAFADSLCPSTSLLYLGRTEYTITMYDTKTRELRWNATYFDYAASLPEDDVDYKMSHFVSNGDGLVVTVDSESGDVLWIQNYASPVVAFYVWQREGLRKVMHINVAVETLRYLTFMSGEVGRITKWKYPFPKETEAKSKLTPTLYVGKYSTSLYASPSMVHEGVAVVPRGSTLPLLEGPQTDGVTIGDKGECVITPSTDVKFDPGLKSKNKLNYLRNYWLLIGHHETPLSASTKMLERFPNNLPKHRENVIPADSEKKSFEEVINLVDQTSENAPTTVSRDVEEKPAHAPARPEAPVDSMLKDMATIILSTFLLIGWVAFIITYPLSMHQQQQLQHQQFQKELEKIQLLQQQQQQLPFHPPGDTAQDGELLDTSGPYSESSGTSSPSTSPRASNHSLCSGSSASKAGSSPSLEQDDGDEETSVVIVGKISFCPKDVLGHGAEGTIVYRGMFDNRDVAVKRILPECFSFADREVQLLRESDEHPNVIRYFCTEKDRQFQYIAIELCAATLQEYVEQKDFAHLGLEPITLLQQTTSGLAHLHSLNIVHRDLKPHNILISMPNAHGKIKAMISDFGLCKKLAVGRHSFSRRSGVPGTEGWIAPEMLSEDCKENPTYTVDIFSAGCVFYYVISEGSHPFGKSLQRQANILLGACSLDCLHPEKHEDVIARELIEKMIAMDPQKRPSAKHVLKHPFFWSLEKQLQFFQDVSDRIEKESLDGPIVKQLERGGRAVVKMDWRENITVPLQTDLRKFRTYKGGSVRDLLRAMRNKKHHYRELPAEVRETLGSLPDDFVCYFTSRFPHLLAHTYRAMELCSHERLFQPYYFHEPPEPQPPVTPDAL

[25] = biological target: Wee1-like protein kinase (Homo sapiens) (UniProt P30291); experiment: Inhibition of human WEE1 at 100 nM using MBP as substrate by [gamma-33P]-ATP assay
HeLa = experiment: Inhibition of colony formation in human HeLa cells incubated for 2 weeks crystal violet staining based assay; format: functional, cell-based
[26] = Half life in Sprague-Dawley rat at 10 mg/kg, po measured upto 24 hrs by LC-MS/MS analysis; format: ADME, organism-based; conditions: in vivo
[27] = biological target: PAS domain-containing serine/threonine-protein kinase (Homo sapiens) (UniProt Q96RG2); experiment: Inhibition of human PASK at 100 nM using KKLNRTLSFAEPG as substrate by [gamma-33P]-ATP assay
Sequence of PAS domain-containing serine/threonine-protein kinase (Homo sapiens) (Q96RG2 whole entry, the tested form may be a part): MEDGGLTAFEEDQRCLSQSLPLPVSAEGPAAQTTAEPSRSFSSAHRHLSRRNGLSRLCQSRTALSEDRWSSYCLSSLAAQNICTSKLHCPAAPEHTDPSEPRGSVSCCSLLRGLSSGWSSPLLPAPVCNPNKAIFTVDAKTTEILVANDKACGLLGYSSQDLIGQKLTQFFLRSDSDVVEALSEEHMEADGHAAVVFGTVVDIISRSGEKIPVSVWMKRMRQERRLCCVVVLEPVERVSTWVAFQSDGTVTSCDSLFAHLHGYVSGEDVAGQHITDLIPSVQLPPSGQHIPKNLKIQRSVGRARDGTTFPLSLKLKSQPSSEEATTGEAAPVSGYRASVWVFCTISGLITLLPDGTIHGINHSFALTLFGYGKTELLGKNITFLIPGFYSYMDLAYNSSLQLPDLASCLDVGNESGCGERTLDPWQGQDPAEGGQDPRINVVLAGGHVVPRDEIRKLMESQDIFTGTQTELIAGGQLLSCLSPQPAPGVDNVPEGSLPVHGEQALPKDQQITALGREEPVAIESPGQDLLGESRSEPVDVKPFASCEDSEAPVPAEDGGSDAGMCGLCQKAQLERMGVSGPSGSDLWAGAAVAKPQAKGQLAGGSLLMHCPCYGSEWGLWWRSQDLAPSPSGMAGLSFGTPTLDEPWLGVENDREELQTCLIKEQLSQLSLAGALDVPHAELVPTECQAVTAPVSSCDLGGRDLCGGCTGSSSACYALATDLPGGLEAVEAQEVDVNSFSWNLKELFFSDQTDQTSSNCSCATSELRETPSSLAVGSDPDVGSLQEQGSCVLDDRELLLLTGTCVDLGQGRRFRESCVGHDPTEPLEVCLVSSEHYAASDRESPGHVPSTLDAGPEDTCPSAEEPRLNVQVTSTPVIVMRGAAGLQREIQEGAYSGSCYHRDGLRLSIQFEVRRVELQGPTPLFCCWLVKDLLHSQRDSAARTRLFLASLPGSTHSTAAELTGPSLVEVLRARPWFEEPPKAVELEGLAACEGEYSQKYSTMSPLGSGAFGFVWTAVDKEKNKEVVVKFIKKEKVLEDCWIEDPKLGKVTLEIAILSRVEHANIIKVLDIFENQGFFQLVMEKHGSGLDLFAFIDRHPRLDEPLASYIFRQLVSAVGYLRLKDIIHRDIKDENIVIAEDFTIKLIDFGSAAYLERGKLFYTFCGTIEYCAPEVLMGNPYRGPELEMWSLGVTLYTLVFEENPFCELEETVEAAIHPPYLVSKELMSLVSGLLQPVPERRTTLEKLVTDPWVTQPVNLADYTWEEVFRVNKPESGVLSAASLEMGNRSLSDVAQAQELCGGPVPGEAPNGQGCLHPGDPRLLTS

[28] = biological target: Focal adhesion kinase 1 (Homo sapiens) (UniProt Q05397); experiment: Inhibition of human FAK at 100 nM using poly[Glu:Tyr] (4:1) as substrate by [gamma-33P]-ATP assay
[29] = biological target: Tyrosine-protein kinase Fyn (Homo sapiens) (UniProt P06241); experiment: Inhibition of human FYN at 100 nM using poly[Glu:Tyr] (4:1) as substrate by [gamma-33P]-ATP assay
[30] = biological target: Calcium/calmodulin-dependent protein kinase kinase 1 (Homo sapiens) (UniProt Q8N5S9); experiment: Inhibition of human CAMKK1 at 100 nM using MBP as substrate by [gamma-33P]-ATP assay

SMILES: COc1ccc(N2C(=O)COc3ccc(-c4cnc(OC)c(NS(=O)(=O)c5ccc(F)cc5)c4)cc32)cc1
- inhibition [1]: 9.57%
- inhibition [2]: 17.4%
- inhibition [3]: 11.5%
- IC50 [4]: 0.022 µM
- inhibition [5]: -3.64%
- inhibition [6]: -2.21%
- inhibition [7]: 8.65%
- inhibition [8]: 26.8%
- inhibition (Homo sapiens): -8.51%
- inhibition [9]: 15.3%
- inhibition [10]: -8.14%
- inhibition [11]: -6.81%
- inhibition [12]: 0.61%
- inhibition [13]: 10.2%
- inhibition [14]: 23.3%
- inhibition [15]: -3.87%
- Cmax [16]: 887 ng/mL
- IC50 (MCF7): 8.26 µM
- inhibition [17]: 10.6%
- inhibition [18]: -1.93%
- inhibition [19]: 8.87%
- inhibition [20]: 2.24%
- inhibition [21]: 2.5%
- inhibition [22]: 17.5%
- inhibition [23]: 20.8%
- inhibition [24]: -2.68%
- inhibition [25]: 6.18%
- inhibition (HeLa): Dose-dependent effect
- half-life [26]: 1.78 h
- inhibition [27]: -2.91%
- inhibition [28]: 15.9%
- inhibition [29]: -0.86%
- inhibition [30]: 14.3%
